Source: patent publication US7026487B2, “Amines substituted with a dihydronaphthalenyl, chromenyl, or thiochromenyl group, a pyridyl group and an alkyl group, having retinoid-like biological activity” (Allergan, Inc., priority 2000, dated 2006)

Experiments:
[1] = molecular target: T1, RXRγ (UniProt P28705); experiment: holoreceptor transactivation assay, RXRγ; format: cell-based; conditions: NA = Not Active, read-out: RXR Trans. EC50 (nM) γ
T1 sequence (P28705 1-463): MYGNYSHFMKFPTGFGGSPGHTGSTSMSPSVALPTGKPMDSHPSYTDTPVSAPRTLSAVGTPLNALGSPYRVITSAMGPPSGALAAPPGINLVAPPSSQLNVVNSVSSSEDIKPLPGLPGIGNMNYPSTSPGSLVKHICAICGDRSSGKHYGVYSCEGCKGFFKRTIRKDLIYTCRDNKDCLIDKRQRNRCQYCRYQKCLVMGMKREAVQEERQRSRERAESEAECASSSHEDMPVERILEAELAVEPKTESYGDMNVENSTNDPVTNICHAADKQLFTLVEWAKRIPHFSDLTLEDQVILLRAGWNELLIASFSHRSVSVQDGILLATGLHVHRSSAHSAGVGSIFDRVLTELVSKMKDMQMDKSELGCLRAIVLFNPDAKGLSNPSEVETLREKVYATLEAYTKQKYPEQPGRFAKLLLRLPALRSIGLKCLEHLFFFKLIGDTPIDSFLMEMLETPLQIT
Source text: (§2) The results obtained in this assay are expressed in EC50 numbers, as they are also in the chimeric receptor transactivation assay.

[2] = molecular target: T2, RXRβ (UniProt P28704); experiment: ligand binding assay, RXRβ; conditions: read-out: RXR Bind Ki (nM) β
T2 sequence (P28704 1-520): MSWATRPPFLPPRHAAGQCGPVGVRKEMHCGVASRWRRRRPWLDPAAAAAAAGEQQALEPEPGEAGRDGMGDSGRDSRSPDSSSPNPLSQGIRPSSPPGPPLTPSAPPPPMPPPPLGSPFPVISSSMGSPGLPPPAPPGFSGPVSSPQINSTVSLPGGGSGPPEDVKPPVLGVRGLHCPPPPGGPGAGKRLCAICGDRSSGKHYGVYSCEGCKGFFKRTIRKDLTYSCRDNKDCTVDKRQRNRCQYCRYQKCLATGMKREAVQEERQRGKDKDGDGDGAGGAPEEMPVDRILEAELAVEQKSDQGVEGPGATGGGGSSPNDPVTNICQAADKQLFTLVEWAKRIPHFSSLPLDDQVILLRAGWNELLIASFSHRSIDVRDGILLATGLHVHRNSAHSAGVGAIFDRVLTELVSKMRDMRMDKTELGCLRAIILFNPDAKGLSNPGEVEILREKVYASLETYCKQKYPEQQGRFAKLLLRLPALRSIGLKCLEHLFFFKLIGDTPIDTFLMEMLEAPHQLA
Source text: (§3) The results obtained in this assay are expressed in EC50 numbers, as they are also in the chimeric receptor transactivation assay. The results of ligand binding assay are expressed in Kd numbers.
(§4) Particularly, the transactivation data pertaining to RAR receptors were obtained in the chimeric assay, and the data pertaining to transactivation of RXR receptors were obtained in the holoreceptor transactivation assay.

[3] = molecular target: T1, RXRγ; experiment: ligand binding assay, RXRγ; conditions: read-out: RXR Bind Ki (nM) γ
Source text: as §3, §4

[4] = molecular target: T2, RXRβ; experiment: holoreceptor transactivation assay, RXRβ; format: cell-based; conditions: NA = Not Active, read-out: RXR Trans. EC50 (nM) β
Source text: as §2

[5] = molecular target: RARβ (Homo sapiens, UniProt P10826); experiment: chimeric receptor transactivation assay, RARβ; format: cell-based; conditions: NA = Not Active, read-out: RAR Trans. EC50 (nM) β
Chain of RARβ (P19793 whole entry): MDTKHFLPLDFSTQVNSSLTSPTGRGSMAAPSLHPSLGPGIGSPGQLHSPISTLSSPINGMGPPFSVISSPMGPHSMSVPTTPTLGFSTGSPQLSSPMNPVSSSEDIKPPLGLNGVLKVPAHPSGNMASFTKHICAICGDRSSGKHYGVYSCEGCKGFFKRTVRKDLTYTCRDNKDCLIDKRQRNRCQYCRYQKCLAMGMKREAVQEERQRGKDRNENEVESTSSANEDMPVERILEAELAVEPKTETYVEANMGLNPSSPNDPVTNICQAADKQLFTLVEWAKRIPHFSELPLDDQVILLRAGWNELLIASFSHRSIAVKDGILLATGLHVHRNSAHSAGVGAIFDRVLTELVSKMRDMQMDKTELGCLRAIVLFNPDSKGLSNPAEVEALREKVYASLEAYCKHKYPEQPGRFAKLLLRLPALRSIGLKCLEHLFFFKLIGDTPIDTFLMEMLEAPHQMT
Chain of RARβ (P10826 154-455): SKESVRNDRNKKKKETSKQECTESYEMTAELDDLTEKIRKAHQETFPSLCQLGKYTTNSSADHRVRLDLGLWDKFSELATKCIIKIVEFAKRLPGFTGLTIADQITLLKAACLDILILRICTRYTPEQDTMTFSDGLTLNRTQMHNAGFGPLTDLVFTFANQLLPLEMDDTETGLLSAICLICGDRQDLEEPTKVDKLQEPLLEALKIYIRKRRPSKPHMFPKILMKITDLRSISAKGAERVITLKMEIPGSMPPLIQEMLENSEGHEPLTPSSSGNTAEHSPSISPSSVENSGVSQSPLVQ
Source text: (§1) The specification of U.S. Pat. No. 5,455,265 is hereby expressly incorporated by reference.

[6] = molecular target: RARγ (Homo sapiens, UniProt P13631); experiment: chimeric receptor transactivation assay, RARγ; format: cell-based; conditions: NA = Not Active, read-out: RAR Trans. EC50 (nM) γ
Chain of RARγ (P13631 whole entry): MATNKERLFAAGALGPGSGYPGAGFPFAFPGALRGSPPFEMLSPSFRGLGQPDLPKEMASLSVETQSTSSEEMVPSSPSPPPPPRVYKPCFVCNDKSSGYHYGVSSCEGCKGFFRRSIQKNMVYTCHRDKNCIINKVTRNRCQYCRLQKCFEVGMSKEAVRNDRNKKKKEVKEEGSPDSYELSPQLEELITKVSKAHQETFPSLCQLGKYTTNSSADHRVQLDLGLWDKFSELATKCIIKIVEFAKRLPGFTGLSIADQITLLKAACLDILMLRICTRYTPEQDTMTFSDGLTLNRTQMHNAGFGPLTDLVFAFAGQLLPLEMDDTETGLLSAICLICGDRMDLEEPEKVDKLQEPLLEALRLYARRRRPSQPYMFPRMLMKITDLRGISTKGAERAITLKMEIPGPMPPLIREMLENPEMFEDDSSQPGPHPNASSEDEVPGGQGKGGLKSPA
Chain of RARγ (P19793 whole entry, further chain): as the sequence (P19793 whole entry) above
Source text: as §1

| Compound | Ki [2] | EC50 [4] | further results |
| --- | --- | --- | --- |
| CC1=CCC(C)(C)c2cc(N(C)c3ccc(C(=O)O)cc3)c(C)cc21 [Compound 44, 4-[Methyl(3,5,8,8-tetramethyl-7,8-dihydronaphthalen-2-yl)amino]benzoic acid] | > 1000 nM |  | EC50 [1]: > 1000 nM; Ki [3]: > 1000 nM |
| CCN(c1ccc(C(=O)O)cc1)c1cc2c(cc1C)C(C)=CCC2(C)C [Compound 45, 4-[Ethyl(3,5,8,8-tetramethyl-7,8-dihydronaphthalen-2-yl)amino]benzoic acid] | > 1000 nM |  | EC50 [1]: > 1000 nM; Ki [3]: > 1000 nM |
| CCCN(c1ccc(C(=O)O)cc1)c1cc2c(cc1C)C(C)=CCC2(C)C [Compound 46, 4-[n-Propyl(3,5,8,8-tetramethyl-7,8-dihydronaphthalen-2-yl)amino]benzoic acid] | > 10000 nM | > 1000 nM | Ki [3]: > 10000 nM |
| CC1=CCC(C)(C)c2cc(N(CC3CC3)c3ccc(C(=O)O)cc3)c(C)cc21 [Compound 47, 4-[Cyclopropylmethyl(3,5,8,8-tetramethyl-7,8-dihydronaphthalen-2-yl)amino]benzoic acid] | > 1000 nM |  |  |
| Cc1cc2c(cc1N(C)c1ccc(C(=O)O)cc1)C(C)(C)CC=C2C(C)C [Compound 52, 4-[Methyl-(5-isopropyl-3,8,8-trimethyl-7,8-dihydronaphthalen-2-yl)amino]benzoic acid] |  | > 1000 nM |  |
| CCN(c1ccc(C(=O)O)cc1)c1cc2c(cc1C)C(C(C)C)=CCC2(C)C [Compound 53] | > 1000 nM | > 1000 nM |  |
| CCCN(c1ccc(C(=O)O)cc1)c1cc2c(cc1C)C(C(C)C)=CCC2(C)C [Compound 54, 4-[n-Propyl-(5-isopropyl-3,8,8-trimethyl-7,8-dihydronaphthalen-2-yl)lamino]benzoic acid] | > 1000 nM | > 1000 nM |  |
| CC1=CCC(C)(C)c2cc(N(C)c3ccc(C(=O)O)cc3)ccc21 [Compound 67, 4-[Methyl-(5,8,8-trimethyl-7,8-dihydro-naphthalen-2-yl)-amino]-benzoic acid] | > 1000 nM |  |  |
| C=CCN(c1ccc(C(=O)O)cc1)c1ccc2c(c1)C(C(C)(C)C)=CCC2(C)C [Compound 90, 4-[(8-t-Butyl-5,5-dimethyl-5,6-dihydronaphthalen-2-yl)(prop-2-en-yl)lamino]-benzoic acid] |  |  | EC50 [5]: > 1000 nM; EC50 [6]: > 1000 nM |
| CCCCCCOc1cc2c(cc1N(CCC)c1ccc(C(=O)O)cc1)C(C)=CCC2(C)C [Compound 145, 4-[(3-n-Hexyloxy-5,5,8-trimethyl-5,6-dihydronaphthalen-2-yl)-n-propylamino]benzoic acid] |  |  | EC50 [1]: > 1000 nM |
| CCCN(c1ccc(C(=O)O)cc1)c1cc2c(cc1OCc1ccccc1)C(C)(C)CC=C2C(C)C [Compound 157] |  |  | EC50 [5]: > 1000 nM |
